According to article PMC2394487, “Improved radiotracing of oxytocin receptor-expressing tumours using the new [^111In]-DOTA-Lys^8-deamino-vasotocin analogue” (British Journal of Cancer, 2003):
“Also recorded” adds a separate entry of the source. Positions of bridges follow the written chain, without caps; N, C: chain ends. Non-standard residues stand in square brackets, D forms with d. Residues, ends and D or L forms follow the SMILES beside them. *: point of attachment. DOTA = O=C(O)CN1CCN(CC(=O)O)CCN(CC(=O)*)CCN(CC(=O)O)CC1; Mpa = O=C(O)CCS

Assays:
human OTR [1] = biological target: T1, human OTR (Homo sapiens, UniProt P30559); experiment: Heterologous competition binding, [3H]-OT displacement, membranes of transfected COS7 cells; settings: for Ki: displacement of [3H]-OT, mean±s.e. of three experiments
T1 construct: expressed in transfected cells; host or cells: COS7 (monkey kidney), transient electroporation
T1 sequence (P30559 1-389): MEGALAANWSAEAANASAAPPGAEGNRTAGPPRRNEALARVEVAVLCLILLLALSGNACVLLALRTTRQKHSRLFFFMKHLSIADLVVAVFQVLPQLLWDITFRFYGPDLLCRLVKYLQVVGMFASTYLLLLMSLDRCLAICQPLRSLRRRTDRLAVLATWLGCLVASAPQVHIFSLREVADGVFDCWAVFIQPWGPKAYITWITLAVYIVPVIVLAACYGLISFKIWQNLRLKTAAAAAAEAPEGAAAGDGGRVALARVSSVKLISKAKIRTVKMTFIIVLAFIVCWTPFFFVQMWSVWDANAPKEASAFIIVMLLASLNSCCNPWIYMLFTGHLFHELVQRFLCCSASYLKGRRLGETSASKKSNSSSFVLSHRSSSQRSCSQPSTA
Protocol: (§1) To determine the LVT, dLVT and DOTA-dLVT affinity constants in comparison with OT, heterologous competition experiments were performed on membranes prepared from monkey kidney COS7 cells transiently transfected by means of electroporation with human OTR, V1a, V2 and V1b cDNAs as previously described ([Chini et al, 1995a]). Briefly, the transfected cells were homogenised with a Dounce glass apparatus, washed twice, and resuspended in binding buffer (50 mM Tris HCl, 5 mM MgCl, pH 7.4). Between 5 and 10 μg of membrane proteins were incubated with a fixed concentration of [^3H]OT (1–2 nM) for 30 min at 30°C in the presence of increasing concentrations of unlabelled peptides. Nonspecific binding was determined in the presence of 1 μM OT. Bound and free radioactivity were separated by filtration over Whatman GF/C filters presoaked in 10 mg ml^−1 BSA. The binding isotherms were analysed using GraphPad Prism.
LVT, dLVT and DOTA-dLVT affinities for the human OTR were determined by means of heterologous competition experiments on membranes prepared from transiently transfected COS7 cells using [^3H]-OT as radioligand.
Figure 3 Binding of LVT-derived peptides to human OT/AVP receptor subtypes. (A) Comparison of OT and DOTA-dLVT affinity for the human OTR. […] [^3H]-OT was used at a concentration of 1–2 nM, and nonspecific binding was determined in the presence of […] OT. Data are expressed as the percentage of bound [^3H]-OT in the absence of cold competitor. […] The affinity of [^111In]-DOTA-dLVT for the human OTR was measured by incubating increasing amounts of labelled peptide to membrane preparations of COS7 cells transiently transfected with the wild-type OTR. […] The membrane preparations of OTR-expressing cells were incubated in the presence of a constant amount of ^3[H]OT (1–2 nM), and nonspecific binding was determined in the presence of 100 μM OT. The membrane preparations of cells expressing V1a, V1b and V2 receptors were incubated in the presence of a constant amount of ^3[H]AVP (2–4 nM), and nonspecific binding was determined in the presence of 100 μM AVP. […]

human OTR fused to EGFP = biological target: T2, human OTR fused to EGFP (Homo sapiens, UniProt P30559); experiment: Peptide-induced receptor internalisation, confocal microscopy, HEK293 cells; format: cell-based; settings: peptide 10^−6 M; for receptor internalisation (result in words): up to 60 min
T2 construct: expressed in transfected cells; host or cells: HEK293, stably transfected
T2 sequence (P30559 1-389): T1 sequence (P30559 1-389)
Protocol: HEK293 cells stably transfected with the human OTR fused to EGFP were grown in six-well dishes, washed twice in serum-free medium, and left to equilibrate for 30 min at 37°C. Peptides were then added at a final concentration of 10^−6 M. At fixed time intervals (5, 15, 30 and 60 min), the cells were washed twice with 10 mM sodium phosphate buffer, pH 7.4, containing 150 mM NaCl (LS buffer), fixed for 20 min at room temperature with 4% (w v^−1) paraformaldehyde, and mounted on glass slides with 90% (v v^−1) glycerol in PBS. The slides were observed under an MRC1024 BioRad confocal microscope.
To assess whether LVT, dLVT and DOTA-dLVT behave like OT to induce receptor internalisation, we applied them to HEK293 cells stably expressing a human OTR C-terminally tagged with the green fluorescent protein EGFP ([Guzzi et al, 2002]; [Rimoldi et al, 2003]).
Figure 4 Laser-scanning confocal microscopy analysis of peptide-induced receptor internalisation. Receptor internalisation was investigated in HEK293 cells stably transfected with the human OTR bearing the EGFP fused at its C-terminus. The cells were grown on coverslips and incubated in serum-free medium for 30 min (Bas), after which the peptides were added at a final concentration of 10^−6 M and the coverslips were fixed at 1, 5, 15, 30 and 60 min.

human V2 receptor = biological target: T3, human V2 receptor (Homo sapiens, UniProt P30518); experiment: Competition binding, [3H]-AVP displacement, membranes of transfected COS7 cells; settings: for Ki: displacement of [3H]-AVP, mean±s.e. of three experiments
T3 construct: expressed in transfected cells; host or cells: COS7 (monkey kidney), transient electroporation
Protocol: as §1
(§2) Figure 3 Binding of LVT-derived peptides to human OT/AVP receptor subtypes. (A) Comparison of OT and DOTA-dLVT affinity for the human OTR. Competition experiments were performed using membrane preparations of COS7 cells transiently transfected with the wild-type OTR. [^3H]-OT was used at a concentration of 1–2 nM, and nonspecific binding was determined in the presence of […] OT. Data are expressed as the percentage of bound [^3H]-OT in the absence of cold competitor. The curves are representative of three independent assays performed in triplicate. (B) [^111In]-DOTA-dLVT saturation binding assay. The affinity of [^111In]-DOTA-dLVT for the human OTR was measured by incubating increasing amounts of labelled peptide to membrane preparations of COS7 cells transiently transfected with the wild-type OTR. The curve is representative of two independent assays performed in triplicate. (C) Receptor selectivity profile of DOTA-dLVT. Competition experiments were performed using membrane preparations of COS7 cells transiently transfected with the wild-type human OTR, and V1a, V1b and V2 receptors. The membrane preparations of OTR-expressing cells were incubated in the presence of a constant amount of ^3[H]OT (1–2 nM), and nonspecific binding was determined in the presence of 100 μM OT. The membrane preparations of cells expressing V1a, V1b and V2 receptors were incubated in the presence of a constant amount of ^3[H]AVP (2–4 nM), and nonspecific binding was determined in the presence of 100 μM AVP. The data are expressed as percentages of bound [^3H]-ligand in the absence of cold competitor. Each curve is the mean of triplicate determinations of a single representative experiment.

human V1a receptor = biological target: T4, human V1a receptor (Homo sapiens, UniProt P37288); experiment: as above; settings: for Ki: displacement of [3H]-AVP, mean±s.e. of three experiments
T4 construct: expressed in transfected cells; host or cells: COS7 (monkey kidney), transient electroporation
Protocol: as §1, §2

human V1b receptor = biological target: T5, human V1b receptor (Homo sapiens, UniProt P47901); experiment: as above; settings: for Ki: displacement of [3H]-AVP, mean±s.e. of three experiments
T5 construct: expressed in transfected cells; host or cells: COS7 (monkey kidney), transient electroporation
T5 sequence (P47901 1-424): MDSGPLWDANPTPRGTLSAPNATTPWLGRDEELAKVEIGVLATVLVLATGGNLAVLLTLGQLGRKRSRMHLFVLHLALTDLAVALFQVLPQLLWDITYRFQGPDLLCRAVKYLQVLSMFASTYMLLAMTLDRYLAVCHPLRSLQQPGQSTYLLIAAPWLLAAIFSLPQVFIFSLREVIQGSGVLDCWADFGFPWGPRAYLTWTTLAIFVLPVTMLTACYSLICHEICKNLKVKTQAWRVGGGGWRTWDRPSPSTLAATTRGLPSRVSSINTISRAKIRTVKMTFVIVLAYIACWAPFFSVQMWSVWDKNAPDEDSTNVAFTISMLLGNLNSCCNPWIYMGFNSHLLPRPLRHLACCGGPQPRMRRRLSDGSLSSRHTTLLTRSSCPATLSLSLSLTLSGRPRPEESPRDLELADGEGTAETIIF
Protocol: as §1, §2

[2] = test system: OTR-positive cells (MCF7, TS/A, MOG-U-V-W); experiment: Displacement of [111In]-DOTA-dLVT binding from intact tumour cells by cold peptides; format: cell-based; settings: 5 min preincubation with 100 μM and 1 mM nonradioactive peptide
Protocol: Binding specificity was determined by evaluating radioactive displacement. Briefly, the cell suspension was incubated for 5 min in the presence of LVT, dLVT or OT 100 μM and 1 mM, or in the presence of unrelated peptides (somatostatin 100 nM and 1 μM, and hexarelin 1 μM) followed by 20 min of incubation with 1 μM [^111In]-DOTA-dLVT. The cells were then centrifuged and washed twice as described above. The activity of the two different agonists and the unrelated peptides in competing with the radioligand was evaluated by measuring cell-bound radioactivity. All of the experiments were performed in triplicate. The statistical analysis was carried out using ANOVA, with a significance cutoff point of 0.05.

OTR+ TS/A tumours = experiment: in vivo; parameters: species or system Balb/c mice; settings: mouse; for tissue to tissue ratio at 5 h: female, Balb/c, iv, 74 kBq, total radioactivity
Protocol: To determine the amount and specificity of the receptor-mediated uptake of [^111In]-DOTA-dLVT in tumours, we used an experimental model of OTR+ TS/A tumours growing in Balb/c mice. A total of 10 female Balb/c mice weighing 25 g were subcutaneously injected with TS/A mammary carcinoma (0.3 × 10^6 in 0.2 ml of medium). After 20 days, when the growing tumour had reached about 2 cm in diameter, five mice were intravenously administered 50 μg of cold OT 30 min before the radiotracer and the other five were not. Mice were injected in the tail vein with [^111In]-DOTA-dLVT (average activity: 74 kBq) and killed 5 h later. The organs were collected, washed, weighed and their radioactivity was measured in a gamma-ray detector with well-counter geometry ([…], Milan, Italy) together with standards of the injection mixture. Activity was expressed as the percentage of the injected dose (%ID) g^-1 of tissue, and the uptake ratios of tumour, blood, kidney and liver were calculated. [table]

human OTR [3] = biological target: T1, human OTR; experiment: [111In]-DOTA-dLVT saturation binding assay, membranes of transfected COS7 cells
Protocol: as §2, with “(C) Receptor selectivity profile of DOTA-dLVT. Competition experiments were performed using membrane preparations of COS7 cells transiently transfected with the wild-type human OTR, and V1a, V1b and V2 receptors.” left out, “Each curve is the mean of triplicate determinations of a single representative experiment.” left out

T4 sequence (P37288 whole entry): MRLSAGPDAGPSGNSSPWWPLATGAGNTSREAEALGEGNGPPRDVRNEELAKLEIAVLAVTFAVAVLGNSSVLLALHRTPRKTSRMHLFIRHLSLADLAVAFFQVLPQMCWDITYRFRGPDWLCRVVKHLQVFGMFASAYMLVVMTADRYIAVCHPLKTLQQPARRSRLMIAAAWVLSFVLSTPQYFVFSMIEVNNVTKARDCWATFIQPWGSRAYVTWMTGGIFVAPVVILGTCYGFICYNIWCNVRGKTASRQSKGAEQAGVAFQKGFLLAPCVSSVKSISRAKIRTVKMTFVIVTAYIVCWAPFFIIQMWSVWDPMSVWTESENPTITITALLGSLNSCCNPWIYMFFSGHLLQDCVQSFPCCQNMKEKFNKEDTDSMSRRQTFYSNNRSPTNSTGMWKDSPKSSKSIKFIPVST
T3 sequence (P30518 whole entry): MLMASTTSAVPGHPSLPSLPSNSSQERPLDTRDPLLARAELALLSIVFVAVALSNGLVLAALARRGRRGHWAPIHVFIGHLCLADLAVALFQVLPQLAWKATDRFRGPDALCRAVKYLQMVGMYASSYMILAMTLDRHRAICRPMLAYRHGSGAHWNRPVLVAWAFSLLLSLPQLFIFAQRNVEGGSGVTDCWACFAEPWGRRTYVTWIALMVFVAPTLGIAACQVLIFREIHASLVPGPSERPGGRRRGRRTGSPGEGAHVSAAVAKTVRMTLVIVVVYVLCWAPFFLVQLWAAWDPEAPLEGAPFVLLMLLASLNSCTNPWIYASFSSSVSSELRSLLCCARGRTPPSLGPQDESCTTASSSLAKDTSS

Ki (human OTR [1]) | time after application at which punctate fluorescence (endocytotic vesicles) is seen (human OTR fused to EGFP) | Ki (human V2 receptor) | lower affinity at V1a receptor relative to human OTR (human V1a receptor) | Ki (human V1a receptor) | lower affinity at V1b receptor relative to human OTR (human V1b receptor) | Ki (human V1b receptor) | Compound | receptor internalisation (result in words) (human OTR fused to EGFP) | specific [111In]-DOTA-dLVT binding displaced [2] | also measured
1.21 ± 0.199 nM | 5 min | 3560 ± 280 nM | ≥ 300 fold | 370 ± 58 nM | ≥ 300 fold | 640 ± 177 nM | CC[C@H](C)[C@@H]1NC(=O)[C@H](Cc2ccc(O)cc2)NC(=O)CCSSC[C@@H](C(=O)N2CCC[C@H]2C(=O)N[C@@H](CCCCNC(=O)CN2CCN(CC(=O)O)CCN(CC(=O)O)CCN(CC(=O)O)CC2)C(=O)NCC(N)=O)NC(=O)[C@H](CC(N)=O)NC(=O)[C@H](CCC(N)=O)NC1=O [DOTA-dLVT] ([Mpa]YIQNCPK(DOTA)G-NH2; disulfide 1-6) | capable of inducing a persistent internalisation; also recorded: rapid and persistent receptor internalisation |  | enhancement of affinity for the hOTR by addition of DOTA group at position 8 of dLVT (human OTR [1]; compared to dLVT (to both OT and dLVT)): 2–3 fold; decrease in binding affinity at V2 receptor relative to human OTR (human V2 receptor): ≥ 300 fold
 | 5 min |  | 10 fold |  | 10 fold |  | CC[C@H](C)[C@@H]1NC(=O)[C@H](Cc2ccc(O)cc2)NC(=O)[C@@H](N)CSSC[C@@H](C(=O)N2CCC[C@H]2C(=O)N[C@@H](CCCCN)C(=O)NCC(N)=O)NC(=O)[C@H](CC(N)=O)NC(=O)[C@H](CCC(N)=O)NC1=O [LVT, [Lys8]-vasotocin, reference compound] (HELM PEPTIDE1{C.Y.I.Q.N.C.P.K.G.[am]}$PEPTIDE1,PEPTIDE1,1:R3-6:R3$$$V2.0; C-terminus assumed; bridges inferred) | rapid and persistent receptor internalisation | more than 92% | concentrations at which V2 receptor binds the peptide (human V2 receptor; in words): only at micromolar concentrations
 |  |  |  |  |  |  | CC[C@H](C)[C@@H]1NC(=O)[C@H](Cc2ccc(O)cc2)NC(=O)CCSSC[C@@H](C(=O)N2CCC[C@H]2C(=O)N[C@@H](CCCCNC(=O)CN2CCN(CC(=O)O)CCN(CC(=O)O)CCN(CC(=O)O)CC2)C(=O)NCC(N)=O)NC(=O)[C@H](CC(N)=O)NC(=O)[C@H](CCC(N)=O)NC1=O [[^111In]-DOTA-dLVT, metal not drawn] ([Mpa]YIQNCPK(DOTA)G-NH2; disulfide 1-6) |  |  | tissue to tissue ratio at 5 h (OTR+ TS/A tumours; Tumour/kidney ratio): 0.06; tissue to tissue ratio at 5 h (OTR+ TS/A tumours; Tumour/liver ratio): 1.42; Tumour/blood ratio (OTR+ TS/A tumours): 7.58; decrease in uptake when TS/A tumours were blocked with 50 μg of cold OT (OTR+ TS/A tumours): three-fold decrease; Kd (human OTR [3]): 4.5 nM
3.88 ± 0.585 nM |  | 3740 ± 400 nM |  | 35.5 ± 6.2 nM |  | 71.7 ± 2 nM | CC[C@H](C)[C@@H]1NC(=O)[C@H](Cc2ccc(O)cc2)NC(=O)CCSSC[C@@H](C(=O)N2CCC[C@H]2C(=O)N[C@@H](CCCCN)C(=O)NCC(N)=O)NC(=O)[C@H](CC(N)=O)NC(=O)[C@H](CCC(N)=O)NC1=O [dLVT, reference compound] (HELM PEPTIDE1{[O=C(CCS[*:3])[*:2]].Y.I.Q.N.C.P.K.G.[am]}$PEPTIDE1,PEPTIDE1,1:R3-6:R3$$$V2.0) |  |  | 
 |  |  |  |  |  |  | oxytocin [OT] |  | more than 92% | 
